# Experimental data published in patent US5811278A, “Dipeptidyl peptidase IV from Xanthomonas maltophilia and process for producing the same” (Ajinomoto Co., Inc., priority 1995, dated 1998).
# Read-outs that look alike come from different tables or passages of the source. Where a SMILES comes first, the peptide text is derived from it. The star is where a group is joined. βNA = c1ccc2cc(N*)ccc2c1
# Legend:
# Format in all cases: biochemical
# [1] = target: T1, dipeptidyl peptidase IV obtainable from Xanthomonas maltophilia (Stenotrophomonas maltophilia, UniProt P95782); assay: Substrate specificity for low molecular weight synthetic peptide substrates; conditions: for activity at 500 µM: read-out: Relative activity (%)
# Procedure: In the present invention, the dipeptidyl peptidase IV activity was measured according to the method of Yoshimoto et al. (J. Biochem., 91:1899-1906 (1982)).
# The used substrates are shown in Table 1, and the concentration thereof was 0.5 mM.
# Using Gly-Pro-β-naphthylamide as the substrate, 0.1 ml of 5 mM Gly-Pro-β-naphthylamide and 0.1 ml of an enzyme solution were added to 0.8 ml of 20 mM Tris-HCl buffer (pH 8.0) containing 5 mM EDTA and allowed to react with each other at 37° C. for 5 minutes, the reaction was terminated by adding 0.5 ml of Fast Garnet GBC (0.1% solution prepared by dissolving it in 1M acetate buffer (pH 4.0) containing 10% Triton X-100) and then absorbance at 550 nm was measured.
# [2] = target: T1, dipeptidyl peptidase IV obtainable from Xanthomonas maltophilia; assay: biochemical
# Target sequence in this assay (P95782 21-741 limits assumed): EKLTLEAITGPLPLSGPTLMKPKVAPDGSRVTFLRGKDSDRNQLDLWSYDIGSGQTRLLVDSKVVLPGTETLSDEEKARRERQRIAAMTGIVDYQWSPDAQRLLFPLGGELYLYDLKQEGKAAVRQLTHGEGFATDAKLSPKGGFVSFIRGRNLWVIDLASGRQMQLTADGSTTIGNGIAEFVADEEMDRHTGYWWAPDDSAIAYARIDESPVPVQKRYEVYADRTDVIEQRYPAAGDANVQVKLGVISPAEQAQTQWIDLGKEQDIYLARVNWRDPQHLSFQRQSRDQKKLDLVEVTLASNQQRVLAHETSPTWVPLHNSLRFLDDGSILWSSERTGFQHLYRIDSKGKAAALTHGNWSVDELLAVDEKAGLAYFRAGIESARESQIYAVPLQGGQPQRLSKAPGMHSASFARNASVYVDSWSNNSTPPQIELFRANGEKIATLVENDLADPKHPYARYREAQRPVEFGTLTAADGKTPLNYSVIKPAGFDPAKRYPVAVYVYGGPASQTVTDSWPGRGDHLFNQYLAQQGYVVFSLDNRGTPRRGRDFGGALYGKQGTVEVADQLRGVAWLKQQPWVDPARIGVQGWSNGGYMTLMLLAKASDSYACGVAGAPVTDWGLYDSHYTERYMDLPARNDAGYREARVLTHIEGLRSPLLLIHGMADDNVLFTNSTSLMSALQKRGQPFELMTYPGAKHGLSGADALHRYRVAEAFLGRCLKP
# [3] = target: T1, dipeptidyl peptidase IV obtainable from Xanthomonas maltophilia; assay: Influence of metal ions on the enzyme activity; conditions: substrate Gly-Pro-β-naphthylamide; for Relative activity (%): metal ion 1 mM, control 100
# Target sequence in this assay (P95782 21-741 limits assumed): as above
# [4] = hydrolysis of the substrate by the enzyme, substrate concentration 0.5 mM
molecule,measurement,setting,value
C[C@H](N)C(=O)N[C@@H](C)C(=O)Nc1ccc2ccccc2c1 [Ala--Ala-β-naphthylamide] (H-Ala-Ala-βNA),activity at 500 µM,[1]; [4],100%
C[C@H](N)C(=O)N1CCC[C@H]1C(=O)Nc1ccc2ccccc2c1 [Ala--Pro-β-naphthy1amide] (H-Ala-Pro-βNA),activity at 500 µM,[1],105%
O=C(O)CN(CCN(CC(=O)O)CC(=O)O)CC(=O)O [EDTA],activity at 5000 µM,[2]; read-out: Relative activity (%),100%
"NCC(=O)N1CCC[C@H]1C(=O)Nc1ccc2ccccc2c1 [Gly--Pro-β-naphthylamide, Gly-Pro-β-naphthylamide] (H-Gly-Pro-βNA)",activity at 500 µM,[1]; [4],100%
[Cl][Hg][Cl] [HgCl2],Inhibition of the enzyme activity by metal ion (in words),[3]; 1 mM,inhibited by HgCl2 almost completely
same,Relative activity (%),[3],0%
[Cl][Ni][Cl] [NiCl2],Relative activity (%),[3],100%
O=C(O)c1cc[c]([Hg][Cl])cc1 [PCMB],Relative activity (%),[2],96%
[Cl-].[Cl-].[Zn+2] [ZnCl2],Relative activity (%),[3],95%
Gly--Pro--Ala,Relative activity (%),[1]; [4],40%
Gly--Pro--Leu--Gly (GPLG; printed: Gly--Pro--Leu--Gly),Relative activity (%),[1]; [4],50%
